Test results reported in PubChem BioAssay (NCI).
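Values below derive from 48-hour exposures of cells grown in 96-well plates, with endpoints linearly interpolated between the two concentrations bracketing the appropriate inhibition level. GI50 is the concentration that inhibits growth by half. At the TGI there is no net growth.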

Columns and labels:
Test in all cases: growth of human tumour cells (NCI), 48 h
HL-60(TB) leukemia = tested on: HL-60(TB) leukemia
SN12C renal = tested on: SN12C renal
MDA-MB-435 = tested on: MDA-MB-435
LOX IMVI melanoma = tested on: LOX IMVI melanoma
CAKI-1 renal = tested on: CAKI-1 renal
HS 578T breast = tested on: HS 578T breast
HCT-15 colon = tested on: HCT-15 colon
IGROV1 ovarian = tested on: IGROV1 ovarian
UACC-62 melanoma = tested on: UACC-62 melanoma
OVCAR-4 ovarian = tested on: OVCAR-4 ovarian

## COc1cc(/C=C/c2ccc3c(Br)cc(Br)c(O)c3n2)ccc1O
HL-60(TB) leukemia
  GI50: 0.46 µM
  TGI: 2.92 µM
SN12C renal
  GI50: 2 µM
  TGI: 17.9 µM
MDA-MB-435
  GI50: 3.38 µM
  TGI: 19.6 µM
LOX IMVI melanoma
  GI50: 0.977 µM
  TGI: 11.4 µM
CAKI-1 renal
  GI50: 0.553 µM
  TGI: 5.42 µM
HS 578T breast
  GI50: 2.01 µM
  TGI: 14.6 µM
HCT-15 colon
  GI50: 0.424 µM
  TGI: 15.3 µM
IGROV1 ovarian
  GI50: 1.54 µM
  TGI: 13.6 µM
UACC-62 melanoma
  GI50: 1.67 µM
  TGI: 5.3 µM
OVCAR-4 ovarian
  GI50: 2.18 µM
  TGI: 11.6 µM

## CC(CO)(Nc1ccc([N+](=O)[O-])cc1[N+](=O)[O-])C(=O)O (configuration not stated)
HL-60(TB) leukemia
  TGI: 35.4 µM
SN12C renal
  TGI: 39.4 µM
MDA-MB-435
  TGI: 44.9 µM
LOX IMVI melanoma
  TGI: 48.2 µM
CAKI-1 renal
  TGI: 89.8 µM
HS 578T breast
  TGI: 46.3 µM
HCT-15 colon
  TGI: 31.4 µM
IGROV1 ovarian
  TGI: 53.7 µM
UACC-62 melanoma
  TGI: > 100 µM

## COc1cc(-c2nn(-c3cccc(NC(=O)CCN4CCN(Cc5ccccc5)CC4)c3)cc2-c2ccncc2)ccc1Cl
HL-60(TB) leukemia
  GI50: 0.632 µM
  TGI: 4.21 µM
SN12C renal
  GI50: 2.13 µM
  TGI: 20.3 µM
MDA-MB-435
  GI50: 0.237 µM
  TGI: 0.737 µM
LOX IMVI melanoma
  GI50: 0.661 µM
  TGI: 1.98 µM
HS 578T breast
  GI50: 1.02 µM
  TGI: 4.34 µM
HCT-15 colon
  GI50: 0.635 µM
  TGI: 3.72 µM
IGROV1 ovarian
  GI50: 0.954 µM
  TGI: 7.88 µM
UACC-62 melanoma
  GI50: 1.13 µM
  TGI: 2.7 µM
OVCAR-4 ovarian
  GI50: 1.8 µM
  TGI: 41 µM

## COc1ccc(Nc2ccnc(N3CCN(c4ccnc5cc(Cl)ccc45)CC3)n2)cc1
HL-60(TB) leukemia
  GI50: 1.14 µM
  TGI: 7.18 µM
SN12C renal
  GI50: 1.67 µM
  TGI: > 100 µM
MDA-MB-435
  GI50: 0.227 µM
  TGI: 0.707 µM
LOX IMVI melanoma
  GI50: 0.884 µM
  TGI: 5.23 µM
CAKI-1 renal
  GI50: 0.576 µM
  TGI: 3.92 µM
HS 578T breast
  GI50: 1.4 µM
  TGI: 9.06 µM
HCT-15 colon
  GI50: 0.83 µM
  TGI: > 100 µM
IGROV1 ovarian
  GI50: 0.696 µM
UACC-62 melanoma
  GI50: 0.292 µM
  TGI: 1.43 µM
OVCAR-4 ovarian
  GI50: 1.34 µM
  TGI: > 100 µM

## C[C@@H]1Cc2cc(O)ccc2[C@H]2CC[C@]3(C)/C(=C/COCCN(C)C)CC[C@H]3[C@H]12 (tested in a mixture with another compound)
HL-60(TB) leukemia
  GI50: 0.244 µM
  TGI: 0.628 µM
SN12C renal
  GI50: 0.111 µM
  TGI: 0.789 µM
MDA-MB-435
  GI50: 0.268 µM
  TGI: 0.875 µM
LOX IMVI melanoma
  GI50: 0.187 µM
  TGI: 0.389 µM
CAKI-1 renal
  GI50: 0.213 µM
  TGI: 0.578 µM
HS 578T breast
  GI50: 0.0822 µM
  TGI: 0.436 µM
HCT-15 colon
  GI50: 0.205 µM
  TGI: 0.55 µM
IGROV1 ovarian
  GI50: 0.379 µM
  TGI: 1.21 µM
UACC-62 melanoma
  GI50: 0.25 µM
  TGI: 0.625 µM
OVCAR-4 ovarian
  GI50: 0.271 µM
  TGI: 0.771 µM

## N/C(=N\OC(=O)c1ccccc1)C(Cc1ccccc1)C(=O)NOC(=O)c1ccccc1 (configuration not stated)
HL-60(TB) leukemia
  GI50: 2.35 µM
  TGI: 6.56 µM
SN12C renal
  GI50: 3.39 µM
  TGI: 25.4 µM
MDA-MB-435
  GI50: 1.76 µM
  TGI: 3.9 µM
LOX IMVI melanoma
  GI50: 1.46 µM
  TGI: 3.68 µM
CAKI-1 renal
  GI50: 1.28 µM
  TGI: 2.97 µM
HS 578T breast
  GI50: 0.952 µM
  TGI: 3.27 µM
HCT-15 colon
  GI50: 2.21 µM
  TGI: 10.5 µM
IGROV1 ovarian
  GI50: 0.43 µM
  TGI: 2.09 µM
UACC-62 melanoma
  GI50: 2.49 µM
  TGI: 7.53 µM
OVCAR-4 ovarian
  GI50: 4.38 µM
  TGI: 27.3 µM

## Cc1[nH]nc(-c2ccon2)c1N=O
HL-60(TB) leukemia
  TGI: 36.3 µM
SN12C renal
  TGI: 42 µM
MDA-MB-435
  TGI: 41 µM
CAKI-1 renal
  TGI: 60.5 µM
HS 578T breast
  TGI: 80.7 µM
HCT-15 colon
  TGI: 34.7 µM
IGROV1 ovarian
  TGI: 70.1 µM
UACC-62 melanoma
  TGI: 34.7 µM
OVCAR-4 ovarian
  TGI: 37.6 µM

## CCOC(=O)c1cc2c(cc1Cl)SC(=Nc1ccccc1)N(S(=O)(=O)c1ccc(Br)s1)S2(=O)=O
SN12C renal
  GI50: 17.3 µM
  TGI: 33.9 µM
MDA-MB-435
  GI50: 13.4 µM
  TGI: 28.3 µM
LOX IMVI melanoma
  GI50: 11.2 µM
  TGI: 24.1 µM
CAKI-1 renal
  GI50: 17.5 µM
  TGI: 32.8 µM
HS 578T breast
  GI50: 18.7 µM
  TGI: 49.4 µM
HCT-15 colon
  GI50: 13.5 µM
  TGI: 27.1 µM
IGROV1 ovarian
  GI50: 17.7 µM
  TGI: 53.4 µM
UACC-62 melanoma
  GI50: 14.4 µM
  TGI: 28.1 µM
OVCAR-4 ovarian
  GI50: 23.4 µM
  TGI: 59.8 µM

## COC(=O)c1cc(-c2ccc(OC)c(OC)c2)[nH]c1N/N=C/c1c(Cl)cccc1Cl
HL-60(TB) leukemia
  GI50: 0.25 µM
  TGI: 0.531 µM
SN12C renal
  GI50: 0.969 µM
  TGI: 18.8 µM
MDA-MB-435
  GI50: 0.127 µM
  TGI: 0.562 µM
LOX IMVI melanoma
  GI50: 0.837 µM
  TGI: 13 µM
CAKI-1 renal
  GI50: 0.768 µM
  TGI: 7.1 µM
HS 578T breast
  GI50: 0.523 µM
  TGI: 11 µM
HCT-15 colon
  GI50: 0.946 µM
  TGI: 24 µM
UACC-62 melanoma
  GI50: 0.552 µM
  TGI: 11.2 µM
OVCAR-4 ovarian
  GI50: 1.67 µM
  TGI: 12.1 µM

## O=C(NNS(=O)(=O)c1ccc(Cl)cc1Cl)c1cccnc1Nc1ccc(Cl)cc1
HL-60(TB) leukemia
  GI50: 23.8 µM
  TGI: 44.4 µM
SN12C renal
  GI50: 31.4 µM
  TGI: > 100 µM
MDA-MB-435
  GI50: 27.3 µM
  TGI: 81.7 µM
LOX IMVI melanoma
  GI50: 21.1 µM
  TGI: 46.5 µM
CAKI-1 renal
  GI50: 19.8 µM
  TGI: 58.7 µM
HS 578T breast
  GI50: 17.8 µM
  TGI: 41.8 µM
HCT-15 colon
  GI50: 33.4 µM
  TGI: > 100 µM
UACC-62 melanoma
  GI50: 22 µM
  TGI: 75.4 µM
OVCAR-4 ovarian
  GI50: 28.7 µM
  TGI: > 100 µM

## Cc1ccncc1C(N)=O
HL-60(TB) leukemia
  GI50: > 100 µM
  TGI: > 100 µM
SN12C renal
  GI50: > 100 µM
  TGI: > 100 µM
MDA-MB-435
  GI50: > 100 µM
  TGI: > 100 µM
LOX IMVI melanoma
  GI50: > 100 µM
  TGI: > 100 µM
CAKI-1 renal
  GI50: > 100 µM
  TGI: > 100 µM
HS 578T breast
  GI50: > 100 µM
  TGI: > 100 µM
HCT-15 colon
  GI50: > 100 µM
  TGI: > 100 µM
IGROV1 ovarian
  GI50: > 100 µM
  TGI: > 100 µM
UACC-62 melanoma
  GI50: > 100 µM
  TGI: > 100 µM

## Cn1ccnc1Oc1ccc(Cl)cc1
HL-60(TB) leukemia
  TGI: 11.1 µM
SN12C renal
  TGI: 26.4 µM
MDA-MB-435
  TGI: 25.1 µM
LOX IMVI melanoma
  TGI: 36.6 µM
HS 578T breast
  TGI: 66.1 µM
HCT-15 colon
  TGI: 23.9 µM
UACC-62 melanoma
  TGI: 23.5 µM
OVCAR-4 ovarian
  TGI: 19.8 µM

## NNc1nnc(-c2nnc(NN)o2)o1
HL-60(TB) leukemia
  TGI: > 10 µM
SN12C renal
  TGI: > 10 µM
MDA-MB-435
  TGI: > 10 µM
CAKI-1 renal
  TGI: > 10 µM
HS 578T breast
  TGI: > 10 µM
HCT-15 colon
  TGI: > 10 µM
IGROV1 ovarian
  TGI: > 10 µM
UACC-62 melanoma
  TGI: > 10 µM
OVCAR-4 ovarian
  TGI: > 10 µM

## Cc1ccc(C2C3Cc4ccccc4C3=NN2c2ccc(S(=O)(=O)/N=c3\scc(-c4ccccc4)n3-c3ccccc3)cc2)cc1 (configuration not stated)
HL-60(TB) leukemia
  GI50: 14.5 µM
  TGI: 31.5 µM
SN12C renal
  GI50: 16.8 µM
  TGI: 31.8 µM
MDA-MB-435
  GI50: 17.6 µM
  TGI: 37.7 µM
LOX IMVI melanoma
  GI50: 17.4 µM
  TGI: 31.2 µM
CAKI-1 renal
  GI50: 18.6 µM
  TGI: 44.7 µM
HS 578T breast
  GI50: 17.2 µM
  TGI: 44.8 µM
HCT-15 colon
  GI50: 25.4 µM
  TGI: 79.2 µM
IGROV1 ovarian
  GI50: 26.5 µM
  TGI: > 100 µM
UACC-62 melanoma
  GI50: 14 µM
  TGI: 27.7 µM
